The test relates to cultured hair follicles. Put plainly: Radioactive cysteine incorporation in cultured hair follicles as a measure of hair growth. Type of test: cell-based, mice. Here is the method:
In this system, follicles were dissected from 4 day old mice. Healthy follicles were selected visually and cultured in serum free media supplemented with insulin, transferrin and selenium. The activity of compositions comprising one or more of the test compounds in stimulating hair growth was measured by radioactive cysteine labeling of the newly formed hair proteins and expressed as a percentage of the activity of a control (i.e., no test compounds present).

With “Glycyl-L-Histidyl-L-Lysyl-L-Valyl-L-Phenylalanyl-L-Valine: Copper Complex”, where the note is “at the concentrations used (Minoxidil 1 mM, peptide copper complex 10 μM)”, the “radioactive cysteine incorporation relative to control (result in words)” value is “stimulated radioactive cysteine incorporation above that of the control”. In addition, under “peptide copper complex 10 μM, follicles from 4 day old mice, serum free media”, the “% of Cysteine Incorporation of Control (no addition)” value turned out to be 113%.

These data come from patent publication US20040142853A1, “Stimulation of hair growth by compositions containing peptide copper complexes and minoxidil” (priority 2002, published 2004).
